# Several values for one entry are separate records, joined by “and”; a condition that tells them apart may be missing. Equal values may be shown once. Positions of bridges follow the written chain, without caps; N, C: chain ends. Residues, ends and D or L forms follow the SMILES beside them.
# Experiments:
# [1] = Peptide fraction helicity by CD at 222 nm, peptide-only samples; format: physicochemical; conditions: CD signal at 222 nm of peptide-only samples; pH 7.4 phosphate/KF/TCEP buffer; duplicate experiments
# Procedure: (§1) The precise nature of the interaction between the cJun DBD and the rationally designed acidic domain of HW1 is unknown. HW1 was, therefore, iteratively truncated from the N terminus (HW2–6) to investigate the effect on cJun binding and cJun/TRE DNA antagonism (Table 1). Peptide fraction helicity (fH) was determined by quantifying the circular dichroism (CD) signal at 222 nm of peptide-only samples (Figure S1). Thermal denaturation experiments were then used to determine the melting temperature (Tm) of peptide-cJun heterodimers, which serves as an approximate measure of target engagement. CD was also used to investigate the functional activity of peptides in antagonizing the cJun/TRE DNA interaction. […] This provides a clear and direct measurement of the proportion of DNA bound to cJun. As antagonist peptide concentration was increased, the peak shifted to overlay with that of free TRE-DNA (Figure S4). For each peptide, the data were fit to a Hill equation to determine half-maximal inhibitory concentration (IC50) values, specific to these assay conditions, providing a clear comparative measure of antagonism. The same 60 amino acid cJun construct, encompassing the entire bZIP domain, was used for all experiments regardless of antagonist peptide length.
# [2] = tested on: TRE DNA; experiment: CD of TRE DNA with antagonist peptide alone (Figure S3); format: binding; conditions: TRE DNA (5 μM) + HingeW (50 μM), CD 260-320 nm
# Procedure: as §1, with “length. […]” for “length.”
# wavelength range, so the CD signal observed occurs due to the DNA structure, which is not perturbed upon addition of HingeW. […]
# [3] = Stability in human serum; conditions: human serum (Merck), 75 μL of 600 μM peptide stock added to 1425 μL serum, 37 °C, 3-day endpoint; acetonitrile:water precipitation; LC-MS, sum of two largest charge-state peaks; average of three repeats
# [4] = target: T1, cJun (Homo sapiens, UniProt P05412); experiment: Isothermal titration calorimetry (ITC) with cJun; format: binding; conditions: 25 °C, average of two experiments ± one SD
# T1 construct: The same 60 amino acid cJun construct, encompassing the entire bZIP domain, was used for all experiments
# T1 sequence (P05412 252-315 limits assumed): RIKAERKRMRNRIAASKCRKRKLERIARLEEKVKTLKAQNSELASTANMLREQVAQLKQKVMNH
# Source text: A selection of peptides from this work were investigated by isothermal titration calorimetry (ITC) to quantify the thermodynamic parameters of their interaction with target cJun (Figure 4 and S6; Table 2). The determined equilibrium binding constant (KD) values follow from the CD data above and can be rationalized in terms of the truncation or lactamization they represent. […] All interactions investigated were dominated by the enthalpic component, with a smaller unfavorable entropic contribution, other than for HW8/cJun, which is the weakest interaction. The unfavorable entropic component was largest for the HW30/cJun interaction and smallest for HW23/cJun. This indicates the introduction of lactams produces a more unfavorable entropic component, perhaps a surprising result as helix-inducing lactamization is typically considered to increase affinity through entropic pre-organization. However, the larger increase in the favorable enthalpic component produces an increase in binding affinity due to lactamization. This is likely to be caused by a combination of enhanced intermolecular contacts and ordering that are opposed by unfavorable desolvation effects.
# Two-μL injections of antagonist peptide at 25–200 μM were injected into the cell containing cJun at 2.5–20 μM at 25°C. Microcal Control and Analysis software were used to record and analyze the heat change upon addition and fit the data to a one-site binding model to extract the enthalpy change of binding (ΔH) and the KD, from which the free energy change of binding (ΔG) and the entropy change of binding (ΔS) were calculated.[40] Control experiments involved the injection of the antagonist peptide sample into the cell containing ITC buffer alone to determine the heat of dilution, which was subtracted. Thermodynamic parameters are presented as an average of two independent experiments with errors given as one SD.
# [5] = target: T1, cJun; experiment: CD thermal denaturation of peptide-cJun heterodimers (Tm); format: binding; conditions: for Tm of peptide-cJun heterodimer: CD ellipticity at 222 nm, 1-90 °C, peptide (5 μM)/cJun (5 μM), 20 mM potassium phosphate, 150 mM potassium fluoride, 2 mM TCEP pH 7.4, two-state fit, duplicate experiments, ± one SD
# Procedure: as §1
# Figure 2 Iterative N-terminal truncation of HingeW reduces cJun binding and antagonism (A) Thermal denaturation profiles for iteratively truncated peptide (5 μM)/cJun (5 μM) heterodimer samples. (B) CD antagonism data produced by monitoring the shift in a DNA specific peak to provide a direct readout of cJun-DNA binding. Peptides are added at the indicated concentrations to a pre-incubated mixture of cJun (20 μM) and TRE DNA (5 μM). Data points were averaged from triplicate experiments, and error bars indicate one SD. The data were fitted to a Hill equation to determine IC50 values. Some higher peptide concentration data points for HW6 and HW9 are not shown in this plot for clarity.
# [6] = CD thermal denaturation of peptide alone, 222 nm
# Procedure: The LZ domain of HW1 has four point mutations from its parent sequence, FosW, which is known to homodimerize.[24]
# Protein/DNA samples were suspended in 20 mM potassium phosphate, 150 mM potassium fluoride, and 2 mM TCEP (pH 7.4). cJun was added to DNA before addition of antagonist peptide, and these samples were equilibrated for 30 min before measurement.
# [7] = target: T2, cJun/TRE DNA interaction (Homo sapiens, UniProt P05412); experiment: CD antagonism of the cJun/TRE DNA interaction; format: biochemical
# T2 construct: The same 60 amino acid cJun construct, encompassing the entire bZIP domain, was used for all experiments
# T2 sequence (P05412 252-315 limits assumed): as above
# Procedure: as §1, with “For each peptide, the data were fit to a Hill equation to determine half-maximal inhibitory concentration (IC50) values, specific to these assay conditions, providing a clear comparative measure of antagonism. The same 60 amino acid cJun construct, encompassing the entire bZIP domain, was used for all experiments regardless of antagonist peptide length.” left out
# Figure 2 Iterative N-terminal truncation of HingeW reduces cJun binding and antagonism (A) Thermal denaturation profiles for iteratively truncated peptide (5 μM)/cJun (5 μM) heterodimer samples. (B) CD antagonism data produced by monitoring the shift in a DNA specific peak to provide a direct readout of cJun-DNA binding. […]
# [8] = target: cJun (60 amino acid construct encompassing the entire bZIP domain) (UniProt P05412)
# cJun (60 amino acid construct encompassing the entire bZIP domain) (UniProt P05412), sequence (P05412 252-315): as the sequence (P05412 252-315 limits assumed) above
# [9] = target: T3, cJun (60 amino acid construct encompassing the entire bZIP domain) (UniProt P05412 252-315); experiment: cell-based or functional assay
# T3 sequence (P05412 252-315): as the sequence (P05412 252-315 limits assumed) above
# [10] = CD thermal denaturation; peptide alone (no cJun); thermal denaturation curves compared as a sign of homodimerization; conditions: other: CD thermal denaturation
# [11] = target: T3, cJun (60 amino acid construct …); experiment: CD thermal denaturation; peptide (5 μM) with cJun (5 μM); ellipticity at 222 nm, 1°C to 90°C; 20 mM potassium phosphate, 150 mM potassium fluoride, 2 mM TCEP, pH 7.4; two-state fit gives the Tm of the peptide-cJun heterodimer; duplicate experiments; conditions: both partners purified
# [12] = peptide 25-200 μM injected into cJun 2.5-20 μM, pH 7.4, one-site model
molecule,measurement,setting,value
"MASLEQRAEELARENEELEKEAEELVVEEDVLEEEIEQLEERNYALRKEIEDLQKQLEKLGAPHHHHHH [HW1, TBS-derived cJun antagonist; recombinantly produced N/C-capped, C-terminally 6xHis-tagged construct of 69 amino acids]","fH, peptide fraction helicity",[1],~27% and 27.2%
same,interaction with TRE DNA (in words),[2],does not interact
same,"peptide remaining in human serum, peak intensity relative to starting value",[3],fully degraded
same,ΔG,"[4]; pH 7.4, calculated from KD",-13.45 ± 0.179 kcal/mol
same,-TΔS,"[4]; pH 7.4, calculated from ΔH and KD",17.55 ± 0.884 kcal/mol
"CC[C@H](C)[C@H](NC(=O)[C@H](CCC(=O)O)NC(=O)[C@H](CCCCN)NC(=O)[C@H](CCCNC(=N)N)NC(=O)[C@H](CC(C)C)NC(=O)[C@H](C)NC(=O)[C@H](Cc1ccc(O)cc1)NC(=O)[C@H](CC(N)=O)NC(=O)[C@H](CCCNC(=N)N)NC(=O)[C@H](CCC(=O)O)NC(=O)[C@H](CCC(=O)O)NC(=O)[C@H](CC(C)C)NC(=O)[C@H](CCC(N)=O)NC(=O)[C@H](CCC(=O)O)NC(=O)[C@@H](NC(=O)[C@H](CCC(=O)O)NC(=O)[C@@H]1CC(=O)NCCCC[C@H](NC(=O)[C@H](CCC(=O)O)NC(=O)[C@H](CCC(=O)O)NC(=O)[C@@H](NC(=O)[C@@H](NC(=O)[C@H](CC(C)C)NC(=O)[C@H](CCC(=O)O)NC(=O)[C@H](CCC(=O)O)NC(=O)[C@H](C)NC(=O)[C@H](CCC(=O)O)NC(C)=O)C(C)C)C(C)C)C(=O)N[C@@H](C(C)C)C(=O)N[C@@H](CC(C)C)C(=O)N[C@@H](CCC(=O)O)C(=O)N1)[C@@H](C)CC)C(=O)N[C@H]1CCCCNC(=O)C[C@@H](C(=O)N[C@@H](CCC(N)=O)C(N)=O)NC(=O)[C@H](CCC(N)=O)NC(=O)[C@H](CC(C)C)NC(=O)[C@H](CC(=O)O)NC1=O [HW30] (Ac-EAEELVVEEKVLEDEIEQLEERNYALRKEIKDLQDQ-NH2; lactam 10-14, 31-35)","peptide remaining in human serum, peak intensity relative to starting value",[3],56%
Ac-LVVEEDVLEEEIEQLEERNYALRKEIEDLQKQLEKL-NH2 [HW5],"fH, peptide fraction helicity",[1],46.7%
same,Tm of peptide-cJun heterodimer,[5],62.8 ± 1.0 °C
same,Tm of peptide alone,[6],41 °C
Ac-EAEELVVEEDVLEEEIEQLEERNYALRKEIEDLQKQ-NH2 [HW8],"fH, peptide fraction helicity",[1],37.3%
same,Tm of peptide-cJun heterodimer,[5],57.1 ± 0.9 °C
same,"peptide remaining in human serum, peak intensity relative to starting value",[3],fully degraded
same,ΔH,"[4]; pH 7.4, one-site model",-5.989 ± 0.813 kcal/mol
same,"Stoichiometry, n",[4]; [12],0.95 ± 0.09
Ac-EAEELVVEEDVLEEEIEQLEEKNKALKDEIEDLY-NH2 [HW14],"fH, peptide fraction helicity",[1],30.1%
same,IC50,"[7]; peptide added to pre-incubated cJun (20 μM) and TRE DNA (5 μM), shift of DNA CD peak at ~281 nm, 30 min equilibration, pH 7.4, Hill fit, triplicate experiments, ± one SD, read-out: IC50 CD (antagonism of cJun/TRE DNA binding)",1560 µM
"MASLEQRAEELARENEELEKEAEELVVE-NH2 [HW7, acidic domain of HW1 alone (CΔ35)]",binding to cJun (in words),[5]; acidic domain alone,not to bind
same,antagonism of the ability of cJun to bind TRE DNA (in words),[7]; CD antagonism assay,did not
CC[C@H](C)[C@H](NC(=O)[C@H](CCC(=O)O)NC(=O)[C@H](CCCCN)NC(=O)[C@H](CCCNC(=N)N)NC(=O)[C@H](CC(C)C)NC(=O)[C@H](C)NC(=O)[C@H](Cc1ccc(O)cc1)NC(=O)[C@H](CC(N)=O)NC(=O)[C@H](CCCNC(=N)N)NC(=O)[C@H](CCC(=O)O)NC(=O)[C@H](CCC(=O)O)NC(=O)[C@H](CC(C)C)NC(=O)[C@H](CCC(N)=O)NC(=O)[C@H](CCC(=O)O)NC(=O)[C@@H](NC(=O)[C@H](CCC(=O)O)NC(=O)[C@H](CCC(=O)O)NC(=O)[C@H](CCC(=O)O)NC(=O)[C@H](CC(C)C)NC(=O)[C@@H](NC(=O)[C@H](CC(=O)O)NC(=O)[C@H](CCC(=O)O)NC(=O)[C@H](CCC(=O)O)NC(=O)[C@@H](NC(=O)[C@@H](NC(=O)[C@H](CC(C)C)NC(=O)[C@H](CCC(=O)O)NC(=O)[C@H](CCC(=O)O)NC(=O)[C@H](C)NC(=O)[C@H](CCC(=O)O)NC(C)=O)C(C)C)C(C)C)C(C)C)[C@@H](C)CC)C(=O)N[C@H]1CCCCNC(=O)C[C@@H](C(=O)N[C@@H](CCC(N)=O)C(N)=O)NC(=O)[C@H](CCC(N)=O)NC(=O)[C@H](CC(C)C)NC(=O)[C@H](CC(=O)O)NC1=O [HW29] (Ac-EAEELVVEEDVLEEEIEQLEERNYALRKEIKDLQDQ-NH2; lactam 31-35),ΔTm of cJun heterodimer due to lactamization,[5]; cyclized versus its linear (non-lactamized) counterpart,~9 °C
same,ΔTm of cJun heterodimer relative to parent sequence HW8,"[5]; versus HW8, before the substitutions for K and D residues",~8 °C
same,"peptide remaining in human serum, peak intensity relative to starting value",[3],31%
same,Kd,[4]; [12],0.0866 ± 0.017 µM
Ac-EAEELVVEEDVLEEEIEQLEEKNKALKDEIEDLY-NH2 [HW14],IC50 CD: peptide added to pre-incubated cJun (20 μM) and TRE DNA (5 μM); blocks cJun/TRE DNA binding,[8],1560 µM
"Ac-LVVEEDVLEEEIEQLEERNYALRKEIEDLQKQLEKL-NH2 (truncation NΔ24 CΔ3 of HW1; source: synthetic peptide (Fmoc SPPS, RP-HPLC purified)) [HW5]",IC50 CD: peptide added to pre-incubated cJun (20 μM) and TRE DNA (5 μM); blocks cJun/TRE DNA binding,[9],78.2 µM
same,Tm of the peptide alone,[10],HW5 displayed a Tm of 41 °C
same,Tm of the peptide-cJun heterodimer,[11],62.8 °C

# Source: PMC9582194, “The effect of helix-inducing constraints and downsizing upon a transcription block survival-derived functional cJun antagonist” (Cell Reports. Physical Science, 2022)
